Patent US5707648A, “Transparent liquid for encapsulated drug delivery” (LDS Technologies, Inc., priority 1995, dated 1998)

What was measured:
[1] = human, in vivo; cited from earlier work
plasma Factor VIII = experiment: Plasma Factor VIII levels following administration of dDAVP (dDAVP Dog Study); assay type: in vivo, Male beagle dogs; settings: dogs; capsules with 13, 43 and 125 μg dDAVP, dDAVP in dextrose, or s.c. 0.4 μg/kg
Procedure: Male beagle dogs weighing 9-12 kg were used in all experiments. Prior to each study, all animals were fasted overnight but were allowed access to water ad libitum.
Peroral administration: Enteric coated hard gelatin capsules, size 0el (0.78 ml) from [sequence], fill materials: 0.73 g of the drug delivery compositions containing:
Subcutaneous administration: 4 μg dDAVP/ml composition, 0.4 μg dDAVP/kg animal (Table 6F).
Plasma Factor VIII levels following administration of dDAVP was used as a pharmacodynamic response to the drug. Maximum response to dDAVP was determined by measuring plasma Factor VIII response levels following subcutaneous administration of dDAVP (Table 6F).
For studies involving capsule administration, a single capsule was given to each animal in each study. Blood samples were taken immediately prior to dDAVP administration (t=0), and at various times thereafter. Plasma levels of Factor VIII were determined using commercially available kits.

[2] = compared with AVP or LVP; cited from earlier work
[3] = tested on: delta-class of opioid receptor; settings: Vaughn et al. 1989; cited from earlier work
[4] = Chemical stability of calcitonin in the formulation; assay type: physicochemical; settings: formulation of Table 7.1

## NC(=O)CC[C@@H]1NC(=O)[C@H](Cc2ccccc2)NC(=O)[C@H](Cc2ccc(O)cc2)NC(=O)CCSSC[C@@H](C(=O)N2CCC[C@H]2C(=O)N[C@H](CCCN=C(N)N)C(=O)NCC(N)=O)NC(=O)[C@H](CC(N)=O)NC1=O [desmopressin]
[1]
  oral bioavailability: 0.1-0.2%
Plasma Factor VIII
  response in plasma Factor VIII levels (in words): dose-dependent increase in plasma Factor VIII levels
[2]
  pressor (vasoconstricting) activities: lacks the pressor (vasoconstricting) activities of AVP or LVP

## [D-Pen^2,5, PCl-Phe^4 ]-enkephalin
[3]
  interaction with the delta-class of opioid receptor: interacts selectively with the delta-class of opioid receptor

## calcitonin
[4]
  chemical stability of calcitonin in the formulation: chemically stable in this formulation for at least two months
